From ChEMBL document CHEMBL5303304, “EUbOPEN Chemogenomics Library - IncuCyte” (2023)

Experiments:
Assay type in all cases: toxicity, cell-based
HEK-293T = test: Incucyte cell viability with HEK293T; conditions: human, 10 µM, compound concentration 10 uM
Fibroblast = test: Incucyte cell viability with human fibroblast; conditions: 10 µM, compound concentration 10 uM
U2OS = test: Incucyte cell viability with U2OS; conditions: human, 10 µM, compound concentration 10 uM
Also: unitless GR value; below 1 slowed growth and below 0 cell loss.

Which “Growth Rate” value (HEK-293T; 0 h, replicate number 2) does the source give for `CN(C)C(=O)Cn1cc(-c2ccc(-c3nnc4ccccn34)cc2)cn1` here?
Its value is 0.91.

What about the “Growth Rate” value (HEK-293T; 6 h, replicate number 1) of the same molecule?
The value was 0.81.

And the “Growth Rate” value (HEK-293T; 12 h, replicate number 1)?
The value was 0.91.

What about the “Growth Rate” value (Fibroblast; 0 h, replicate number 2) of the same molecule?
Its value is -0.65.

What about the “Growth Rate” value (Fibroblast; 6 h, replicate number 1) of the same molecule?
The value was 0.9.

What about the “Growth Rate” value (Fibroblast; 12 h, replicate number 2) of the same molecule?
The value was 0.97.

And the “Growth Rate” value (Fibroblast; 18 h, replicate number 2)?
Its value is 0.9.

And the “Growth Rate” value (Fibroblast; 24 h, replicate number 2)?
The value was 0.99.

What about the “Growth Rate” value (U2OS; 0 h, replicate number 1) of the same molecule?
Its value is 0.43.

And the “Growth Rate” value (U2OS; 6 h, replicate number 1)?
Its value is 0.9.

What about the “Growth Rate” value (U2OS; 12 h, replicate number 1) of the same molecule?
The value was 0.76.

And the “Growth Rate” value (U2OS; 12 h, replicate number 2)?
Its value is 0.88.

And the “Growth Rate” value (U2OS; 18 h, replicate number 2)?
The value was 0.96.

What about the “Growth Rate” value (U2OS; 24 h, replicate number 1) of the same molecule?
Its value is 0.67.

And the “Growth Rate” value (U2OS; 24 h, replicate number 2)?
The value was 0.99.

How did the “Growth Rate” value (HEK-293T; 0 h, replicate number 2) turn out when `CC[C@@H](C(=O)OC)n1c(=O)c2ccccc2n(Cc2cn(C)c3cccc(C)c23)c1=O` was run?
Its value is -0.42.

And the “Growth Rate” value (Fibroblast; 0 h, replicate number 1)?
Its value is -1.

And the “Growth Rate” value (Fibroblast; 6 h, replicate number 1)?
Its value is 0.75.

What about the “Growth Rate” value (Fibroblast; 6 h, replicate number 2) of the same molecule?
Its value is -0.9.

What about the “Growth Rate” value (Fibroblast; 12 h, replicate number 1) of the same molecule?
Its value is 1.

And the “Growth Rate” value (Fibroblast; 12 h, replicate number 2)?
Its value is 0.49.

What about the “Growth Rate” value (Fibroblast; 18 h, replicate number 1) of the same molecule?
The value was 0.75.

What about the “Growth Rate” value (Fibroblast; 18 h, replicate number 2) of the same molecule?
The value was 0.48.

What about the “Growth Rate” value (U2OS; 0 h, replicate number 2) of the same molecule?
Its value is 0.16.

What about the “Growth Rate” value (U2OS; 12 h, replicate number 2) of the same molecule?
The value was 0.97.

And the “Growth Rate” value (U2OS; 18 h, replicate number 2)?
The value was 0.96.

What about the “Growth Rate” value (U2OS; 24 h, replicate number 1) of the same molecule?
Its value is 0.92.

What about the “Growth Rate” value (U2OS; 24 h, replicate number 2) of the same molecule?
The value was 0.9.

With `COc1cc(C)c(S(=O)(=O)N(C)CCOCC(=O)N(C)[C@H]2CCC[C@@H](N3CCN(C)CC3)C2)c(C)c1.O=C(O)C(O)C(O)C(=O)O` as the molecule, how does the “Growth Rate” value (HEK-293T; 0 h, replicate number 2) read?
Its value is 0.26.

And the “Growth Rate” value (Fibroblast; 0 h, replicate number 1)?
Its value is -1.

And the “Growth Rate” value (Fibroblast; 6 h, replicate number 1)?
Its value is 0.87.

And the “Growth Rate” value (Fibroblast; 6 h, replicate number 2)?
The value was -0.57.

And the “Growth Rate” value (Fibroblast; 12 h, replicate number 2)?
Its value is 0.57.

And the “Growth Rate” value (Fibroblast; 18 h, replicate number 1)?
Its value is 0.93.

And the “Growth Rate” value (Fibroblast; 18 h, replicate number 2)?
The value was 0.67.

And the “Growth Rate” value (Fibroblast; 24 h, replicate number 2)?
Its value is 0.92.

What about the “Growth Rate” value (U2OS; 12 h, replicate number 2) of the same molecule?
The value was 0.86.

With `CO[C@@H](C)CN1CC[C@]2(C)c3cc(O)ccc3C[C@H]1C2(C)C.Cl` as the molecule, how does the “Growth Rate” value (HEK-293T; 0 h, replicate number 2) read?
The value was 0.15.

What about the “Growth Rate” value (Fibroblast; 0 h, replicate number 1) of the same molecule?
The value was -1.

And the “Growth Rate” value (Fibroblast; 0 h, replicate number 2)?
The value was -0.8.

And the “Growth Rate” value (Fibroblast; 6 h, replicate number 1)?
The value was 0.93.

And the “Growth Rate” value (Fibroblast; 12 h, replicate number 2)?
The value was 0.89.

What about the “Growth Rate” value (Fibroblast; 18 h, replicate number 1) of the same molecule?
The value was 1.

And the “Growth Rate” value (U2OS; 0 h, replicate number 1)?
Its value is 0.91.

And the “Growth Rate” value (U2OS; 6 h, replicate number 1)?
The value was 0.69.

And the “Growth Rate” value (U2OS; 6 h, replicate number 2)?
The value was 0.47.

What about the “Growth Rate” value (U2OS; 12 h, replicate number 1) of the same molecule?
Its value is 0.82.

How did the “Growth Rate” value (HEK-293T; 0 h, replicate number 2) turn out when `CC1(C)CCN(C(=O)C2CN(c3c4c(nc5ccnn35)CCNCC4)C2)C1.O=C(O)C(F)(F)F` was run?
The value was 0.61.

And the “Growth Rate” value (HEK-293T; 6 h, replicate number 1)?
The value was -0.5.

What about the “Growth Rate” value (HEK-293T; 12 h, replicate number 1) of the same molecule?
Its value is 0.45.

And the “Growth Rate” value (HEK-293T; 18 h, replicate number 1)?
The value was 0.87.

What about the “Growth Rate” value (HEK-293T; 24 h, replicate number 1) of the same molecule?
The value was 0.96.

What about the “Growth Rate” value (Fibroblast; 12 h, replicate number 2) of the same molecule?
The value was 0.82.

What about the “Growth Rate” value (Fibroblast; 18 h, replicate number 2) of the same molecule?
The value was 0.86.

What about the “Growth Rate” value (Fibroblast; 24 h, replicate number 1) of the same molecule?
The value was 0.98.

And the “Growth Rate” value (Fibroblast; 24 h, replicate number 2)?
Its value is 0.96.

And the “Growth Rate” value (U2OS; 6 h, replicate number 1)?
The value was 0.78.

For `CN(C)[C@H]1CCN(c2cc(C(F)(F)F)c(C#N)c(Nc3cccc(CCC(=O)O)c3)n2)C1.O=C(O)C(F)(F)F`, which “Growth Rate” value (HEK-293T; 0 h, replicate number 2) is on record?
The value was 0.79.

And the “Growth Rate” value (HEK-293T; 6 h, replicate number 1)?
The value was 0.73.

What about the “Growth Rate” value (HEK-293T; 12 h, replicate number 1) of the same molecule?
The value was 0.95.

And the “Growth Rate” value (HEK-293T; 18 h, replicate number 1)?
The value was 0.94.

And the “Growth Rate” value (Fibroblast; 6 h, replicate number 1)?
Its value is 0.81.

What about the “Growth Rate” value (Fibroblast; 6 h, replicate number 2) of the same molecule?
The value was -0.53.

And the “Growth Rate” value (Fibroblast; 12 h, replicate number 2)?
Its value is 0.75.

And the “Growth Rate” value (Fibroblast; 18 h, replicate number 1)?
Its value is 0.99.

And the “Growth Rate” value (Fibroblast; 18 h, replicate number 2)?
The value was 0.93.

What about the “Growth Rate” value (Fibroblast; 24 h, replicate number 2) of the same molecule?
Its value is 0.72.

And the “Growth Rate” value (U2OS; 0 h, replicate number 1)?
Its value is 0.61.

And the “Growth Rate” value (U2OS; 0 h, replicate number 2)?
Its value is 0.54.

What about the “Growth Rate” value (U2OS; 6 h, replicate number 1) of the same molecule?
The value was 0.63.

What about the “Growth Rate” value (U2OS; 6 h, replicate number 2) of the same molecule?
The value was 0.38.

And the “Growth Rate” value (U2OS; 12 h, replicate number 2)?
The value was 0.78.

What about the “Growth Rate” value (U2OS; 18 h, replicate number 2) of the same molecule?
Its value is 0.89.

What about the “Growth Rate” value (U2OS; 24 h, replicate number 2) of the same molecule?
The value was 0.88.

What does the source list for `CC(C)N(C(=O)C1CCOCC1)c1cc(F)c(Oc2ncc(Cn3nccn3)cc2C(F)(F)F)cc1C(=O)O`?
Growth Rate (HEK-293T; 0 h, replicate number 2): 0.61; Growth Rate (Fibroblast; 0 h, replicate number 1): 0.24; Growth Rate (Fibroblast; 0 h, replicate number 2): -0.36; Growth Rate (Fibroblast; 6 h, replicate number 1): 0.7; Growth Rate (Fibroblast; 12 h, replicate number 1): 0.85; Growth Rate (U2OS; 0 h, replicate number 1): 0.83; Growth Rate (U2OS; 6 h, replicate number 1): 0.91; Growth Rate (U2OS; 18 h, replicate number 2): 0.98; Growth Rate (U2OS; 24 h, replicate number 2): 0.93

`CN1CCN(C(=O)c2ccc(N(C)c3ncc(C(F)(F)F)c(N[C@@H]4CCC[C@@H]4C(N)=O)n3)cc2)CC1.Cl` was tested. Which “Growth Rate” value (HEK-293T; 0 h, replicate number 2) did it give?
The value was 0.56.

What about the “Growth Rate” value (HEK-293T; 6 h, replicate number 1) of the same molecule?
The value was 1.

What about the “Growth Rate” value (HEK-293T; 6 h, replicate number 2) of the same molecule?
Its value is 0.56.

And the “Growth Rate” value (HEK-293T; 12 h, replicate number 1)?
Its value is 0.91.

And the “Growth Rate” value (Fibroblast; 6 h, replicate number 2)?
The value was -0.99.

What about the “Growth Rate” value (Fibroblast; 12 h, replicate number 2) of the same molecule?
Its value is -0.02.

And the “Growth Rate” value (Fibroblast; 18 h, replicate number 2)?
Its value is 0.35.

What about the “Growth Rate” value (Fibroblast; 24 h, replicate number 2) of the same molecule?
Its value is 0.9.

And the “Growth Rate” value (U2OS; 24 h, replicate number 2)?
Its value is 1.

How did the “Growth Rate” value (HEK-293T; 0 h, replicate number 2) turn out when `N#Cc1ccc(C#CC[C@@H](C#N)NC(=O)[C@H]2CCCCN2)cc1F.O=C(O)C(F)(F)F` was run?
The value was -0.1.

What about the “Growth Rate” value (Fibroblast; 0 h, replicate number 1) of the same molecule?
The value was -1.

What about the “Growth Rate” value (Fibroblast; 6 h, replicate number 1) of the same molecule?
Its value is 0.94.

And the “Growth Rate” value (Fibroblast; 18 h, replicate number 1)?
Its value is 0.86.

What about the “Growth Rate” value (Fibroblast; 24 h, replicate number 1) of the same molecule?
The value was 0.92.

And the “Growth Rate” value (U2OS; 0 h, replicate number 2)?
Its value is 0.12.

And the “Growth Rate” value (U2OS; 6 h, replicate number 1)?
Its value is 0.86.

And the “Growth Rate” value (U2OS; 6 h, replicate number 2)?
The value was 0.95.

What about the “Growth Rate” value (U2OS; 12 h, replicate number 2) of the same molecule?
Its value is 0.78.

And the “Growth Rate” value (U2OS; 18 h, replicate number 2)?
The value was 0.73.

What about the “Growth Rate” value (U2OS; 24 h, replicate number 2) of the same molecule?
Its value is 0.73.
